Assay results: patent US20240207288A1, “METHODS OF TREATING ESOPHAGEAL STRICTURES” (Ellodi Pharmaceuticals, L.P., priority 2021, published 2024)
Read-outs that look alike come from different tables or passages of the source.

Assays:
[1] = system: subjects with strictures and/or rings and EoE; assay: Clinical trial of FP ODT: endoscopy (EREFS, strictures, rings); type: in vivo, human; settings: for Stricture and Grade 2 Rings at Week 12, % / Stricture at Week 12, % / Stricture or Grade 2 Rings at Week 12, % / Subjects with new strictures and/or rings at Week 12, % / Endoscopy Responder Rate (overall EFEFS score ≤4), %: subgroup with strictures and/or Grade 2 rings at baseline; for Endoscopy Responder Rate (overall EFEFS score ≤4), %: Week 12
From the text: In some embodiments, the strictures and/or rings are diagnosed using EoE Endoscopic Reference Score (EREFS), which measures edema (e.g., decreased vascularity or pallot), rings present, exudates (e.g., white plaques), furrows, and/or stricture in the esophagus according to Table 1. In embodiments, the patient also has a grade 2 or grade 3 ring.
In some embodiments, the methods of the present disclosure cause an improvement in a patient's EoE Endoscopic Reference score (EREFS). The EREFS identifies the severity of five endoscopic findings: edema, rings, exudates, furrows, and strictures. The EREFS classification system rates the severity of each of the endoscopic findings. The severity of edema is rated on a scale from 0 to 2. The severity of rings is rated from 0 to 3. The severity of exudates is rated from 0 to 2. The severity of furrows is rated from 0 to 2. The severity of strictures is rated from 0 to 1. The absence of a finding corresponds to a score of 0. The presence of a finding corresponds to a score of 1, 2, or 3. A higher score is correlated with higher severity. In some embodiments, the composite EREFS score, or the sum of the individual scores, is utilized to indicate the severity of EoE. In some embodiments, the inflammatory EREFS score, or the sum of the individual edeme, exudate, and furrows score, is utilized to indicate the severity of EoE. In some embodiments, a higher inflammatory or composite EREFS score corresponds to the severity of EoE. In some embodiments, the inflammatory or composite EREFS score decreases after treatment with a corticosteroid according to the methods of the disclosure. In some embodiments the inflammatory or composite EREFS score decreases by 0.1, or about 0.2, or about 0.3, or about 0.4, or about 0.5, or about 0.6, or about 0.7, or about 0.8, or about 0.9, or about 1.0, or about 1.1, or about 1.2, or about 1.3, or about 1.4, or about 1.5, or about 1.6, or about 1.7, or about 1.8, or about 1.9, or about 2.0, or about 2.1, or about 2.2, or about 2.3, or about 2.4, or about 2.5, or about 2.6, or about 2.7, or about 2.8, or about 2.9, or about 3.0, or about 3.1, or about 3.2, or about 3.3, or about 3.4, or about 3.5, or about 3.6, or about 3.7, or about 3.8, or about 3.9, or about 4.0, or about 4.1, or about 4.2, or about 4.3, or about 4.4, or about 4.5, or about 4.6, or about 4.7, or about 4.8, or about 4.9, or about 5.0, or about 5.1, or about 5.2, or about 5.3, or about 5.4, or about 5.5, or about 5.6, or about 5.7, or about 5.8, or about 5.9, or about 6.0, or about 6.1, or about 6.2, or about 6.3, or about 6.4, or about 6.5, or about 6.6, or about 6.7, or about 6.8, or about 6.9, or about 7.0, or about 7.1, or about 7.2, or about 7.3, or about 7.4, or about 7.5, or about 7.6, or about 7.7, or about 7.8, or about 7.9, or about 8.0, or about 8.1, or about 8.2, or about 8.3, or about 8.4, or about 8.5, or about 8.6, or about 8.7, or about 8.8, or about 8.9, or about 9.0, or about 9.1, or about 9.2, or about 9.3, or about 9.4, or about 9.5, or about 9.6, or about 9.7, or about 9.8, or about 9.9, or about 10.0 points, or more, inclusive of all ranges between these values. In some embodiments, the EREFS score decreases by 1%, or 5%, or 10%, or 15%, or 20%, or 25%, or 30%, or 35%, or 40%, or 45%, or 50%, or 55%, or 60%, or 65%, or 70%, or 75%, or 80%, or 85%, or 90%, or 95% or more, inclusive of all ranges between these values. The following article, incorporated by reference in its entirety herein, describes the EREFS score: Wechsler, Clin Hepatol. 2018 July; 16(7): 1056-1063.
A clinical trial was performed to evaluate the effect of an orally disintegrating tablet (“ODT”) comprising fluticasone propionate (FP). A randomised, double-blind, placebo-controlled, multicentre, dose-ranging, and maintenance study of FP in subjects (>18 and <75 years of age) with strictures and/or rings and EoE. […]

[2] = cited from earlier work
[3] = all FP dosing groups, TOTAL (n = 43)

S-(fluoromethyl)-6α,9-difluoro-11β, 17-dihydroxy-16α-methyl-3-oxoandrosta-1, 4-diene-17β-carbothioate, 17-propanoate [FP]
Stricture and Grade 2 Rings at Week 12, % ([1]; FP 1.5 mg BID (n = 12)): 0% | Stricture at Week 12, % ([1]; FP 1.5 mg BID (n = 12)): 42% | Stricture or Grade 2 Rings at Week 12, % ([1]; FP 1.5 mg BID (n = 12)): 50% | Subjects with new strictures and/or rings at Week 12, % ([1]; FP 1.5 mg BID (n = 12)): 0% | Endoscopy Responder Rate (overall EFEFS score ≤4), % ([1]; FP 1.5 mg BID (n = 12)): 92% | Stricture and Grade 2 Rings at Week 12, % ([1]; FP 1.5 mg HS (n = 13)): 0% | Stricture at Week 12, % ([1]; FP 1.5 mg HS (n = 13)): 8% | Stricture or Grade 2 Rings at Week 12, % ([1]; FP 1.5 mg HS (n = 13)): 15% | Subjects with new strictures and/or rings at Week 12, % ([1]; FP 1.5 mg HS (n = 13)): 0% | Endoscopy Responder Rate (overall EFEFS score ≤4), % ([1]; FP 1.5 mg HS (n = 13)): 77% | Stricture and Grade 2 Rings at Week 12, % ([1]; FP 3 mg BID (n = 7)): 0% | Stricture at Week 12, % ([1]; FP 3 mg BID (n = 7)): 29% | Stricture or Grade 2 Rings at Week 12, % ([1]; FP 3 mg BID (n = 7)): 29% | Subjects with new strictures and/or rings at Week 12, % ([1]; FP 3 mg BID (n = 7)): 0% | Endoscopy Responder Rate (overall EFEFS score ≤4), % ([1]; FP 3 mg BID (n = 7)): 86% | Stricture and Grade 2 Rings at Week 12, % ([1]; FP 3 mg HS (n = 11)): 0% | Stricture at Week 12, % ([1]; FP 3 mg HS (n = 11)): 9% | Stricture or Grade 2 Rings at Week 12, % ([1]; FP 3 mg HS (n = 11)): 18% | Subjects with new strictures and/or rings at Week 12, % ([1]; FP 3 mg HS (n = 11)): 0% | Endoscopy Responder Rate (overall EFEFS score ≤4), % ([1]; FP 3 mg HS (n = 11)): 100% | Stricture and Grade 2 Rings at Week 12, % [1, 3]: 0% | Stricture at Week 12, % [1, 3]: 21% | Stricture or Grade 2 Rings at Week 12, % [1, 3]: 28% | Subjects with new strictures and/or rings at Week 12, % [1, 3]: 0% | Endoscopy Responder Rate (overall EFEFS score ≤4), % [1, 3]: 88% | Grade 2 Rings at Week 12, % ([1]; all FP dosing groups, subjects with stricture/rings at baseline): 7% | Effect on strictures and/or grade 2 esophageal rings (post-hoc analysis) ([1]; patients with strictures and/or grade 2 esophageal rings at baseline, particularly the 3-mg HS dosing group): improvement or resolution of these features in most patients | Solubility ([2]; acetone, dichloromethane, ethyl acetate and chloroform): sparingly soluble | Solubility ([2]; dimethyl sulfoxide and dimethylformamide): freely soluble | Solubility ([2]; methanol and 95% ethanol): slightly soluble | Solubility ([2]; water): practically insoluble
